Patent US10828317B2, “Method of treating bacterial infections” (priority 2016, dated 2020)
Where two headings read alike, the source gives them in different places.

How the values were obtained:
[1] = test system: P. aeruginosa EN004; assay: MIC, WT (EN004 = EN0004); type: cell-based, Pseudomonas aeruginosa
[2] = test system: A. baumannii EN007; assay: MIC, WT (EN007 = EN0007); type: cell-based, Acinetobacter baumannii
[3] = test system: E. coli EN0136; assay: MIC, ESBL (CTX-M-2); type: cell-based; settings: Escherichia coli, read-out: MIC
[4] = test system: E. coli EN0235; assay: microbe, parasite or virus in culture; type: cell-based; settings: Escherichia coli
[5] = test system: E. coli EN0137; assay: MIC, ESBL (CTX-M-15); type: cell-based; settings: Escherichia coli, EN0137, combination didanosine+trimethoprim+uridine, Table 20; read-out: MIC
[6] = test system: S. marescens EN0454; assay: MIC; type: cell-based, Serratia marescens; settings: Serratia, read-out: MIC
[7] = test system: K. pneumoniae EN0244; assay: MIC, colistinR; type: cell-based; settings: Klebsiella pneumoniae, EN0244, combination didanosine+trimethoprim+uridine, Table 20; read-out: MIC
[8] = test system: K. pneumoniae EN0245; assay: MIC, colistinR; type: cell-based; settings: Klebsiella pneumoniae, EN0245, combination didanosine+trimethoprim+uridine, Table 20; read-out: MIC
[9] = test system: K. pneumoniae EN0463; assay: MIC; type: cell-based, Klebsiella pneumoniae; settings: Klebsiella pneumoniae, read-out: MIC
[10] = test system: P. mirabilis EN0457; assay: MIC; type: cell-based, Proteus mirabilis; settings: Proteus mirabilis, read-out: MIC
[11] = test system: S. flexneri APV00907; assay: MIC and antibiogram; type: cell-based; settings: Shigella flexneri, Table 22A
From the text: Inhibition of Heliobacter is important in view of increasing resistance and its association to gastric cancer.

[12] = test system: A. baumannii EN016; assay: MIC, WT; type: cell-based, Acinetobacter baumannii; settings: Acinetobacter baumannii, read-out: MIC
[13] = test system: P. aeruginosa EN0460; assay: MIC; type: cell-based, Pseudomonas aeruginosa; settings: Pseudomonas aeruginosa, read-out: MIC
[14] = test system: E. aerogenes EN0461; assay: MIC; type: cell-based, Enterobacter aerogenes; settings: Klebsiella aerogenes, read-out: MIC
[15] = test system: E. coli EN003; assay: microbe, parasite or virus in culture; type: cell-based, Escherichia coli; settings: Escherichia coli, EN003, combination didanosine+trimethoprim+uridine, Table 10
[16] = test system: E. coli EN001; assay: MIC, WT (EN001 = EN0001, ATCC 25922); type: cell-based, Escherichia coli
[17] = test system: P. mirabilis ST19 EN0445; assay: MIC; type: cell-based, Proteus mirabilis; settings: Proteus mirabilis, read-out: MIC
[18] = combination AZT+trimethoprim+uridine, Table 17B
[19] = combination FdUrd+trimethoprim+uridine, Table 19
[20] = combination didanosine+trimethoprim+uridine, Table 20

## O=c1ccn([C@@H]2O[C@H](CO)[C@@H](O)[C@H]2O)c(=O)[nH]1 [Uridine, uridine]
[1]; Pseudomonas aeruginosa, EN004, combination AZT+trimethoprim+uridine, Table 6, read-out: MIC
  MIC: > 1000 µg/mL
[1]; Pseudomonas aeruginosa, EN004, combination FdUrd+trimethoprim+uridine, Table 8, read-out: MIC
  MIC: > 400 µg/mL
[1]; Pseudomonas aeruginosa, EN004, combination didanosine+trimethoprim+uridine, Table 10, read-out: MIC
  MIC: > 400 µg/mL
[1]; [18]
  MIC: >400 µg/mL
[1]; [19]
  MIC: >400 µg/mL
[1]; [20]
  MIC: >400 µg/mL
[2]; Acinetobacter baumannii, EN007, Combination 1 AZT+trimethoprim+uridine, Table 16, read-out: MIC
  MIC: > 400 µg/mL
[2]; Acinetobacter baumannii, EN007, Combination 2 AZT+trimethoprim+uridine+thymidine, Table 16, read-out: MIC
  MIC: > 400 µg/mL
[2]; Acinetobacter baumannii, EN007, combination AZT+trimethoprim+uridine, Table 6, read-out: MIC
  MIC: > 1000 µg/mL
[2]; Acinetobacter baumannii, EN007, combination FdUrd+trimethoprim+uridine, Table 8, read-out: MIC
  MIC: > 400 µg/mL
[2]; Acinetobacter baumannii, EN007, combination didanosine+trimethoprim+uridine, Table 10, read-out: MIC
  MIC: > 400 µg/mL
[2]; [18]
  MIC: >400 µg/mL
[2]; [19]
  MIC: >400 µg/mL
[2]; [20]
  MIC: >400 µg/mL
[3]; EN0136, combination AZT+trimethoprim+uridine, Table 17B
  MIC: 13 µg/mL
[3]; EN0136, combination didanosine+trimethoprim+uridine, Table 20
  MIC: > 400 µg/mL
[4]; EN0235, combination FdUrd+trimethoprim+uridine, Table 19
  MIC: 6 µg/mL
[4]; EN0235, combination didanosine+trimethoprim+uridine, Table 20
  MIC: 13 µg/mL
[5]
  MIC: > 400 µg/mL
[6]; EN0454, Combination 1 AZT+trimethoprim+uridine, Table 16
  MIC: > 400 µg/mL
[6]; EN0454, Combination 2 AZT+trimethoprim+uridine+thymidine, Table 16
  MIC: > 400 µg/mL
[6]; EN0454, combination didanosine+trimethoprim+uridine, Table 10
  MIC: > 400 µg/mL
[7]
  MIC: > 400 µg/mL
[8]
  MIC: > 400 µg/mL
[9]; EN0463, Combination 1 AZT+trimethoprim+uridine, Table 16
  MIC: 12.5 µg/mL
[9]; EN0463, combination AZT+trimethoprim+uridine, Table 6
  MIC: 16 µg/mL
[10]; EN0457, Combination 1 AZT+trimethoprim+uridine, Table 16
  MIC: 200 µg/mL
[10]; EN0457, Combination 2 AZT+trimethoprim+uridine+thymidine, Table 16
  MIC: > 400 µg/mL
[10]; EN0457, combination AZT+trimethoprim+uridine, Table 6
  MIC: 500 µg/mL
[11]; APV00907, combination AZT+trimethoprim+uridine
  MIC: 200 µg/mL
[11]; APV00907, combination FdUrd+trimethoprim+uridine
  MIC: > 400 µg/mL
[12]; EN016, Combination 1 AZT+trimethoprim+uridine, Table 16
  MIC: > 400 µg/mL
[12]; EN016, Combination 2 AZT+trimethoprim+uridine+thymidine, Table 16
  MIC: > 400 µg/mL
[12]; EN016, combination AZT+trimethoprim+uridine, Table 6
  MIC: > 1000 µg/mL
[12]; EN016, combination FdUrd+trimethoprim+uridine, Table 8
  MIC: 400 µg/mL
[12]; EN016, combination didanosine+trimethoprim+uridine, Table 10
  MIC: > 400 µg/mL
[13]; EN0460, Combination 1 AZT+trimethoprim+uridine, Table 16
  MIC: > 400 µg/mL
[13]; EN0460, Combination 2 AZT+trimethoprim+uridine+thymidine, Table 16
  MIC: > 400 µg/mL
[13]; EN0460, combination AZT+trimethoprim+uridine, Table 6
  MIC: > 1000 µg/mL
[13]; EN0460, combination FdUrd+trimethoprim+uridine, Table 8
  MIC: > 400 µg/mL
[13]; EN0460, combination didanosine+trimethoprim+uridine, Table 10
  MIC: > 400 µg/mL
[14]; EN0461, Combination 2 AZT+trimethoprim+uridine+thymidine, Table 16
  MIC: 200 µg/mL
[14]; EN0461, combination AZT+trimethoprim+uridine, Table 6
  MIC: 60 µg/mL
[15]
  MIC: 6 µg/mL
[16]; Escherichia coli, EN001, Combination 1 AZT+trimethoprim+uridine, Table 16, read-out: MIC
  MIC: 6.4 µg/mL
[16]; Escherichia coli, EN001, combination AZT+trimethoprim+uridine, Table 6, read-out: MIC
  MIC: 16 µg/mL
[16]; Escherichia coli, EN001, combination FdUrd+trimethoprim+uridine, Table 8, read-out: MIC
  MIC: 13 µg/mL
[16]; Escherichia coli, EN001, combination didanosine+trimethoprim+uridine, Table 10, read-out: MIC
  MIC: 13 µg/mL
[16]; [18]
  MIC: 13 µg/mL
[17]; ST19EN0445, Combination 2 AZT+trimethoprim+uridine+thymidine, Table 16
  MIC: > 400 µg/mL
[17]; ST19EN0445, combination AZT+trimethoprim+uridine, Table 6
  MIC: > 1000 µg/mL
